Source: patent US20040229791A1, “Compositions and methods of modulating TGF-beta activity by fatty acids” (priority 2002, published 2004)

Molecular target: T1, TGF-β1-α2M* complex (Homo sapiens, UniProt P01023)
T1 construct: was purified from pooled citrate-treate human plasma; from tissue; host or cells: pooled citrate-treated human plasma
T1 sequence (P01023 24-1474): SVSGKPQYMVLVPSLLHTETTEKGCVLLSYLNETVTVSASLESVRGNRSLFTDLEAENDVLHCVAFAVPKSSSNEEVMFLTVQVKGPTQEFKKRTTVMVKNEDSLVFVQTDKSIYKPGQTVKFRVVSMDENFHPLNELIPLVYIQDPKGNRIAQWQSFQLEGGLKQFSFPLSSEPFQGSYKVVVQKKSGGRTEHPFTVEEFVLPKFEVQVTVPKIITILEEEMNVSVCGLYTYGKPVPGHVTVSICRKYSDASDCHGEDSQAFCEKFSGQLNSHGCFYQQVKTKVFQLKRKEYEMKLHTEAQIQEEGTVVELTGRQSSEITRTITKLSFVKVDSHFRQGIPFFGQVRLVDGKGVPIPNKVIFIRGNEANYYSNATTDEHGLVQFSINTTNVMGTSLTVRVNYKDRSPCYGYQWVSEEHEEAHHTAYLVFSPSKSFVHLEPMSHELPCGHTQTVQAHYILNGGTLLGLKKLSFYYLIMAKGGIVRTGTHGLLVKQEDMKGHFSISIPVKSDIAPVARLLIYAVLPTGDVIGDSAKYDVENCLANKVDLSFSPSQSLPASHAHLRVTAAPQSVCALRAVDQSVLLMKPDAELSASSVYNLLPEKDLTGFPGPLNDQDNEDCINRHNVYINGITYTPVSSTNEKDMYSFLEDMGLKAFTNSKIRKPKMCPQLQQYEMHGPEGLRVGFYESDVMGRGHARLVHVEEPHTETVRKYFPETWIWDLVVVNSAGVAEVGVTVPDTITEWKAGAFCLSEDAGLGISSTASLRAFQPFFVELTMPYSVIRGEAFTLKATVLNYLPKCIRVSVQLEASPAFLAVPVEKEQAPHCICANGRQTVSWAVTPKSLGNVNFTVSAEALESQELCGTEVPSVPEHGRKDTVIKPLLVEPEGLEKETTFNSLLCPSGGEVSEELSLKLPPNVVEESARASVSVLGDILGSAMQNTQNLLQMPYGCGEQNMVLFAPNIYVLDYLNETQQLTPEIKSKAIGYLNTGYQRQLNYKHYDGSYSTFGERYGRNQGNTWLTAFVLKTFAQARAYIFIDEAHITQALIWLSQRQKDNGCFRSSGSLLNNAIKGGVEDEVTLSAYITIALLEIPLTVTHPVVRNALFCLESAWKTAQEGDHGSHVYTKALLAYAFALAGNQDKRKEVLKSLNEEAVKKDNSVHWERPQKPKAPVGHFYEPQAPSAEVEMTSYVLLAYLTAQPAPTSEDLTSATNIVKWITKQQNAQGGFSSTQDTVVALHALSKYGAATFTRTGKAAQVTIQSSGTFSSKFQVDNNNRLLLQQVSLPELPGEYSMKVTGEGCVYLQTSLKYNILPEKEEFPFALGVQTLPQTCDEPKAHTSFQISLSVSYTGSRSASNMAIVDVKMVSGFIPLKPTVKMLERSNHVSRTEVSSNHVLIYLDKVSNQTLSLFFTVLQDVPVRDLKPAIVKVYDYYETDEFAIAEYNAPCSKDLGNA
Test: Inhibition of 125I-TGF-β1 and α2M* complex formation (5% non-denaturing PAGE, autoradiography)
Format: binding
Settings: for IC50: ~1 nM 125I-TGF-β1, 10 μg α2M* in 0.05 ml, 30 min room temperature, non-denaturing PAGE, read-out: IC50 for inhibiting complex formation between TGF-β1 and α2M*
Protocol: Saturated and unsaturated fatty acids are present in plasma and tissues (25,26). The effects of various concentrations of saturated fatty acids on the formation of complexes between ^125I-TGF ? β1 and ? 2M* were examined. ^125I-TGF- ? 1 (1 nM) was incubated μg/ml) in the presence of various concentrations of n-caprylic acid ([…]), lauric acid (12 carbon atoms), myristic acid (14 carbon atoms), palmitic acid (16 carbon atoms) and stearic acid (18 carbon atoms). After 30 min at room temperature, the reaction mixture was analyzed by 5% non-denaturing PAGE and autoradiography, a standard method form determining complex formation between TGF-β and α2M* (12). […] At 100 μM, it inhibited 20% of the complex formation between TGF ? β1 and α2M*. Esterification consistently abolished the inhibitory activities of the fatty acids.
Complex formation of ^125I-TGF-β and ? 2M*—The reaction mixture contained 10 μg of . α2M*, ˜1 nM of ^125I-TGF- ? 1, ^125I-TGF ? β2 or ^125I-TGF ? acids (dissolved in 100% ethanol) in 0.05 ml of 50 mM HEPES-NaOH buffer, pH 7.4. The final concentration of ethanol in the reaction mixture was 0.5%. These fatty acids and fatty acid derivatives were soluble under the experimental conditions. After 30 min at room temperature, the complex formation of ^125I-TGF- ? and. α2M* was determined by 5% non-denaturing polyacrylamide gel electrophoresis (PAGE) or by 7.5% SDS-PAGE following cross-linking by 0.6 mM DSS. After electrophoresis, the gel was stained with Coomassie blue and analyzed by autoradiography. The ^125I-TGF- ? - ? 2M* complex which co-migrated with free ? 2M* was quantified using a PhosphoImager (Fuji).

IC50 [µM]	inhibitory activity on complex formation of 125I-TGF-β1 and α2M*	SMILES
30		CCCCCC=CCC=CCC=CCC#CCCCC(=O)O [ETYA, 8, 11, 14 eicosatrien-5-ynoic acid]
	inactive	CCCCC/C=C\C/C=C\C/C=C\C/C=C\CCCC(=O)OC [arachidonic acid methyl ester]
68		CCCCCCCCCCCC(=O)O [lauric acid]
